Reference: ChEMBL document CHEMBL3244364, “5,11-dimethyl-2,9-bis(phenylacetyl)-5,11-diazatetracyclo[6.2.2.0(2,7).0(4,9)]dodecane, a potent, novel analgesic” (J Med Chem, 1977)
Active and inactive are the calls of the source.

What was measured:
Rattus norvegicus [1] = experiment: Analgesic activity in sc dosed rat assessed as estimated dose to elevate pain reaction threshold to pressure applied to hind paw of to 50 mmHg; assay type: functional
Rattus norvegicus [2] = experiment: Ratio of morphine ED50 to compound ED50 for analgesic activity in sc dosed rat; assay type: functional
Rattus norvegicus [3] = experiment: Analgesic activity in rat assessed as elevate pain reaction threshold to pressure applied to hind paw of to 50 mmHg at 10 mg/kg, iv; assay type: functional, organism-based; design: dose 10 mg/kg
Rattus norvegicus [4] = organism: Rattus norvegicus; experiment: Toxicity in rat assessed as catatonia; assay type: organism-based; conditions: in vivo
Rattus norvegicus [5] = organism: Rattus norvegicus; experiment: Toxicity in rat assessed as straub tail; assay type: organism-based; conditions: in vivo
Rattus norvegicus [6] = organism: Rattus norvegicus; experiment: Toxicity in rat assessed as exopthalmus; assay type: organism-based; conditions: in vivo
Rattus norvegicus [7] = experiment: Analgesic activity in rat assessed as elevate pain reaction threshold to pressure applied to hind paw of to 50 mmHg at 5 mg/kg, iv; assay type: functional, organism-based; design: dose 5 mg/kg
Rattus norvegicus [8] = experiment: Analgesic activity in rat assessed as elevate pain reaction threshold to pressure applied to hind paw of to 50 mmHg at 50 mg/kg, sc; assay type: functional, organism-based; design: dose 50 mg/kg
Rattus norvegicus [9] = experiment: Analgesic activity in rat assessed as ability to prolong reaction time at 3 mg/kg, sc by tail-flick assay; assay type: functional, organism-based; design: dose 3 mg/kg
Rattus norvegicus [10] = experiment: Analgesic activity in rat assessed as ability to prolong reaction time at 3 mg/kg, sc by tail-flick assay in presence of 10 mg/kg, sc naloxone; assay type: functional, organism-based
[11] = Rattus norvegicus, sc, read-out: ED50

`CN1CC2C3CN(C)C4CC3(C(=O)Cc3ccccc3)C1CC24C(=O)CC1CCCCC1` (configuration not stated) was tested, and the ED50 (Rattus norvegicus [1]; [11]) was 10.1 mg/kg.

With `CN1CC2C3CN(C)C4CC3(C(=O)Cc3ccccc3)C1CC24C(=O)Cc1ccccc1` (single isomer, unassigned; (-)) the “Ratio ED50” value (Rattus norvegicus [2]) was 3 and the ED50 (Rattus norvegicus [1]) was 0.6 mg/kg.

With `CCN1CC2C3CN(C)C4CC3(C(=O)Cc3ccccc3)C1CC24C(=O)Cc1ccccc1` (configuration not stated) the ED50 (Rattus norvegicus [1]; [11]) was 29.9 mg/kg.

`CN1CC2C3CN(C)C4CC3(C(=O)CC3CCCCC3)C1CC24C(=O)CC1CCCCC1` gave an ED50 (Rattus norvegicus [1]; [11]) of over 81 mg/kg.

In the case of `C=CCN1CC2C3CN(C)C4CC3(C(=O)Cc3ccccc3)C1CC24C(=O)Cc1ccccc1` (configuration not stated), the Activity (Rattus norvegicus [3]) is reported as “inactive” and the ED50 (Rattus norvegicus [1]; [11]) is reported as over 80 mg/kg.

In the case of `CN1CC2C3CN(C)C4CC3(C(=O)Cc3ccccc3)C1CC24C(=O)Cc1ccccc1` (racemic) [listing 1 of 2 here], the Activity (Rattus norvegicus [4]) is reported as “Toxic”, the “Ratio ED50” value (Rattus norvegicus [2]) is reported as 1.5 and the ED50 (Rattus norvegicus [1]) is reported as 1 mg/kg. The Activity (Rattus norvegicus [5]) was “Toxic” and the Activity (Rattus norvegicus [6]) was “Toxic”.

In the case of `CN1CC2C3CNC4CC3(C(=O)Cc3ccccc3)C1CC42C(=O)Cc1ccccc1` (configuration not stated), the ED50 (Rattus norvegicus [1]; [11]) is reported as 45 mg/kg.

`CN1CC[C@]23c4c5ccc(O)c4O[C@H]2[C@@H](O)C=C[C@H]3[C@H]1C5` [MORPHINE] gave an ED50 (Rattus norvegicus [1]; [11]) of 1.5 mg/kg.

With `CN1CC2C3CN(C)C4CC3(C(=O)Cc3ccccc3)C1CC24C(=O)Cc1ccccc1` (single isomer, unassigned; (+)) the ED50 (Rattus norvegicus [1]) was over 80 mg/kg.

`O=C(Cc1ccccc1)C12CC3NCC1C1CNC2CC31C(=O)Cc1ccccc1` was tested, and the ED50 (Rattus norvegicus [1]; [11]) was over 81 mg/kg.

In the case of `CC(C)=CCN1CC[C@]2(C)c3cc(O)ccc3C[C@H]1[C@H]2C`, the Activity (Rattus norvegicus [7]) is reported as “Active”.

For `CCN1CC2C3CN(CC)C4CC3(C(=O)Cc3ccccc3)C1CC24C(=O)Cc1ccccc1`, the ED50 (Rattus norvegicus [1]; [11]) was 41.1 mg/kg.

`CN1CC2C3CN(C)C4CC3(C(=O)Cc3ccccc3)C1CC24C(=O)Cc1ccccc1` (racemic) [listing 2 of 2 here] was tested, and the Activity (Rattus norvegicus [8]) was “Active”, the Activity (Rattus norvegicus [9]) was “Active” and the Activity (Rattus norvegicus [10]) was “inactive”.

Compound `C=CCN1CC2C3CN(CC=C)C4CC3(C(=O)Cc3ccccc3)C1CC24C(=O)Cc1ccccc1` has an ED50 (Rattus norvegicus [1]; [11]) of over 81 mg/kg.
